Data reported in US20020146823A1, “Method for promoting hematopoietic and mesenchymal cell proliferation and differentiation” (The University of Southern California, priority 1997, published 2002).
“Also recorded” adds a separate entry of the source. No end group written: not given here.

How the values were obtained:
[1] = Tests of effectiveness of AII fragments (test not specified)
Excerpt: Particularly preferred embodiments of this class include the following: AII, AIII or AII(2-8), […] [SEQ ID NO:2]; […] AII(1-7), […] {SEQ ID NO:4]; AII(2-7). […] [SEQ ID NO:5]; AII(3-7), […] [SEQ ID NO:6]; AII(5-8), […] [SEQ ID NO:7]; AII(1-6), […] [SEQ ID NO:8]; AII(1-5), […] [SEQ ID NO:9]; AII(1-4), […] [SEQ ID NO:10]; and AII(1-3), […] [SEQ ID NO:11]. Other preferred embodiments include: […] [SEQ ID NO:12] and […] [SEQ ID NO:13]. Still another preferred embodiment encompassed within the scope of the invention is a peptide having the sequence […] [SEQ ID NO:31]. AII(6-8), […] [SEQ ID NO:14] and AII(4-8), […] Particularly preferred is angiotensin III of the formula […] [SEQ ID NO:2]. Other preferred compounds include peptides having the structures […] [SEQ ID NO:17] and […] [SEQ ID NO:18].

[2] = system: Rat Peritoneal Macrophages; experiment: Phagocytic capability of rat peritoneal macrophages (opsonized yeast ingestion); type: cell-based, Sprague Dawley rats
Description: Resident peritoneal macrophages have very little phagocytic activity. Exposure of macrophages to inflammatory or activating agents will increase this macrophage function. Resident peritoneal macrophages were harvested from C57B1/6 mice or Sprague Dawley rats and resuspended at a concentration of 1×10^6 cells/ml in phosphate buffered saline (PBS). Five separate 0.5 ml cell aliquots were placed on a glass coverslip in a 35 mm petri dish. Prior to incubation, either 0.5 ml of PBS, AII, or AII analogues or fragments at between 1-1000 ug/ml final concentration was added to the individual cover slips. The dishes containing the cover slips were then incubated at 37° C. for 4 hours, after which the cover slips were washed 3 to 6 times with PBS. Opsonized yeast particles (Sigma Chemical Co.) (yeast opsonized with adult serum from the same species as that under study) were added to the cover slips and incubated for 2 hours, after which the cover slips were again washed with PBS and inverted onto a glass slide. The number of macrophages that ingested yeast and the number of yeast per macrophage ingested was then determined microscopically. At least 100 macrophages per coverslip were counted. The data from this study are summarized in Tables 3 and 4 and FIGS. 1 and 2.

[3] = system: human peripheral blood mononuclear cells (PBMC); experiment: Respiratory burst (hydrogen peroxide generation) in human PBMC; type: cell-based; settings: PBMC; presence and absence of PMA
Description: The respiratory burst of leukocytes (macrophages and polymorphonuclear neutrophils) is one component of the mediator system used to kill bacteria. As with phagocytosis, the level of this respiratory burst activity in resident macrophages is low. […] Studies were conducted to assess the effect of in vitro exposure of murine or rat peritoneal macrophages and human peripheral blood mononuclear cells (PBMC) to various concentrations of AII on the capacity to generate hydrogen peroxide via the respiratory burst system. For the human studies, five different donors were examined.
The murine or rat peritoneal cells were harvested by lavage with 5-15 ml of cold PBS with 0.5% bovine serum albumin. The human PBMC were harvested by venipuncture from normal human volunteers and isolated from peripheral blood by Ficoll Hypaque density centrifugation. After isolation, the cells were resuspended at 1×10^6 cells/ml and placed at 100 μl per well into 96 well plates. The cells were incubated with various concentrations of AII or AII analogues and fragments for 4 hours at 37° C. The cells were then preloaded with a fluorescent probe for hydrogen peroxide, 2,7 dichlorofluorescein acetate, which is nonfluorescent in the absence of hydrogen peroxide. Fifteen minutes later, 10 ng/ml of phorbol myristate acetate (+PMA) or PBS (−PMA) was added to stimulate the production of hydrogen peroxide. One hour after stimulation the level of fluorescence produced was measured on a Cytofluor 2350 multiwell fluorometer.

Row | Substance | effectiveness [1] | #/Cell ([2]; peptide 100 μg/ml) | % w/Yeast ([2]; peptide 100 μg/ml) | Number of Macrophages with Yeast (Yeast Number) 0 ([2]; peptide 100 μg/ml) | Number of Macrophages with Yeast (Yeast Number) 1-3 ([2]; peptide 100 μg/ml) | Number of Macrophages with Yeast (Yeast Number) 4-6 ([2]; peptide 100 μg/ml) | Number of Macrophages with Yeast (Yeast Number) ≧7 ([2]; peptide 100 μg/ml) | #/Cell ([2]; peptide 1000 μg/ml) | % w/Yeast ([2]; peptide 1000 μg/ml) | Number of Macrophages with Yeast (Yeast Number) 0 ([2]; peptide 1000 μg/ml) | Number of Macrophages with Yeast (Yeast Number) 1-3 ([2]; peptide 1000 μg/ml) | Number of Macrophages with Yeast (Yeast Number) 4-6 ([2]; peptide 1000 μg/ml) | Number of Macrophages with Yeast (Yeast Number) ≧7 ([2]; peptide 1000 μg/ml) | respiratory burst capacity after pre-exposure to analogues and fragments of AII [3]
1 | His-Pro-Phe [AII(6-8)] | not to be effective |  |  |  |  |  |  |  |  |  |  |  |  | 
2 | Asp-Arg-Val-Tyr-Ile-His-Pro (DRVYIHP; printed: Asp-Arg-Val-Tyr-Ile-His-Pro) [AII(1-7)] |  | 0.53 | 20.6% | 100 | 21 | 5 | 0 | 0.85 | 30.8% | 90 | 30 | 10 | 0 | an increase in the respiratory burst capacity was observed
3 | Tyr-Ile-His-Pro-Phe (YIHPF; printed: Tyr-Ile-His-Pro-Phe) [AII(4-8)] | not to be effective; also recorded: ineffective in repeated tests |  |  |  |  |  |  |  |  |  |  |  |  | 
4 | DRPYIHPF [GSD 24B] |  |  |  |  |  |  | 0 |  |  | 100 |  |  | 0 | an increase in the respiratory burst capacity was observed
5 | RVYAHPF [GSD 22A] |  |  |  |  |  |  | 0 |  |  | 100 |  |  | 0 | an increase in the respiratory burst capacity was observed
6 | Asp-Arg-Val-Tyr-Ile-His-Pro-Ile [GSD 28] |  |  |  |  |  |  | 0 | 0.02 | 1.0% | 100 | 1 | 0 | 0 | an increase in the respiratory burst capacity was observed
